These results are taken from publication PMC7893792 (ACS Omega, 2021).

For data set [1] the following is noted: cited from earlier work.
Substrate in data set [2]: O=C(O)c1ccc(C(=O)O)c(-c2c3ccc(=O)cc-3oc3cc(O)ccc23)c1
Description: 6-CF uptake by rOat3-expressing HEK293 cells. In kind it is cell-based, rat. The conditions noted are these: other: HEK293-rOat3, 2 min, 37 °C, pH 7.4, 1-100 μM 6-CF.

With carboxyfluorescein, the “Binding to serum protein” value in data set [1] is on record as roughly 90%.

B1: rOat3 (Rattus norvegicus) (protein)
chain: MTFSEILDRVGSMGPFQYLHVTLLALPVLGIANHNLLQIFTATTPVHHCRPPPNASIGPWVLPLDPNGKPEKCLRFVHLPNASLPNDTQRATEPCLDGWIYNSTRDTIVIEWDLVCSSNKLKEMAQSIFMAGILVGGPVIGELSDRFGRKPILTWSYLMLAASGSGAAFSPSLPVYMIFRFLCGCSISGISLSTVILNVEWVPTSMRAISSTSIGYCYTIGQFILSGLAYAIPQWRWLQLTSSAPFFIFSLLSWWVPESIRWLVLSGKYSKALKTLQRVATFNGKKEEGKKLTIEELKFNLQKDITSAKVKYGLSDLFRVSILRRVTFCLSLAWFSTGFAYYSLAMGVEEFGVNIYILQIIFGGVDIPAKFITILSLSYLGRRITQSFLLLLAGGAILALIFVPSEMQLLRTALAVFGKGCLSGSFSCLFLYTSELYPTVLRQTGMGISNVWARVGSMIAPLVKITGELQPFIPNVIFGTTALLGGSAAFFLLETLNRPLPETIEDIQNWHKQVQKTKQESEAEKASQIIPLKTGG
B1: the Km in data set [2] amounted to 2.52 ± 0.48 µM.

As a reminder, the Km is the concentration of substrate that gives half-maximal velocity.
